Reference: patent publication US20050059726A1, “Pyrrolidine-2-ones as factor xa inhibitors” (priority 2001, published 2005)
Where a name gives a salt, the structure may show the parent alone.

Assays:
[1] = molecular target: T1, human Factor Xa (Homo sapiens, UniProt P00742); experiment: In vitro assay for inhibition of Factor Xa (1), chromogenic assay; type: biochemical; conditions: substrate N-α-benzyloxycarbonyl-D-Arg-Gly-Arg-p-nitroanilide 200 μM, Ki calculated from IC50
Method: • 1. Klimkowski, Valentine Joseph; Kyle, Jeffrey Alan; Masters, John Joseph; Wiley, Michael Robert. PCT Int. Appl. (2000), WO 0039092. In Vitro Assay for Inhibition of Factor Xa (1)
Compounds were diluted from a 10 mM stock solution in dimethylsulfoxide at appropriate concentrations. Assay was performed at room temperature using buffer consisting of: 50 mM Tris-HCl, 150 mM NaCl, 5 mM CaCl2, pH 7.4. containing human Factor Xa (final conc. of 0.0015 U,ml^−1). Compound and enzyme were preincubated for 15 min prior to addition of the substrate (final conc. of 200 μM). The reaction was stopped after 30 min with the addition of soybean trypsin inhibitor or H-D-PHE-PRO-ARG-Chloromethylketone. BioTek EL340 or Tecan Spectrafluoro Plus plate readers were used to monitor the absorbance at 405 nm. To obtain IC50 values the data were analysed using ActivityBase® and XLfit®.
Calculation of Ki values:
Ki=IC50/(1+[Substrate]/Km)
The Ki value for the above assay can be obtained by dividing the IC50 value by 1.6.

[2] = molecular target: T1, human Factor Xa; experiment: In vitro assay for inhibition of Factor Xa (2), fluorogenic assay; type: biochemical; conditions: substrate Rhodamine 110, bis-(CBZ-glycylglycyl-L-arginine amide 10 μM), Ki calculated from IC50
In short: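 Enzyme (final 0.0003 U/mL) preincubated 15 min with compound at room temperature in 50 mM Tris-HCl, 150 mM NaCl, 5 mM CaCl2, pH 7.4, then rhodamine 110 bis-(CBZ-Gly-Gly-Arg amide) substrate added (final 10 μM).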

T1 sequence (P00742 235-488 limits assumed): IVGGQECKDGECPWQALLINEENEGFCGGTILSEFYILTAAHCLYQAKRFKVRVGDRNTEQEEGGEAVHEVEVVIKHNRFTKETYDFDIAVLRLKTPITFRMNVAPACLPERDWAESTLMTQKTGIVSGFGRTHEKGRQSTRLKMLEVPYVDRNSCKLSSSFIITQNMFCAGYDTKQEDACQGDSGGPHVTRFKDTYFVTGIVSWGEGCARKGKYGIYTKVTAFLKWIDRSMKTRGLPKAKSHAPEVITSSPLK
T1 sequence (P00742 41-179 partner limits assumed): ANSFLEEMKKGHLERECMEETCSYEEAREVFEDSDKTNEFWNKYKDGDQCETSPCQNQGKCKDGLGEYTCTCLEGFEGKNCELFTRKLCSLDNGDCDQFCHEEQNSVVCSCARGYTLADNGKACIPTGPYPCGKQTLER

CN(C)c1ccc(N2CC[C@H](NS(=O)(=O)c3ccc4cc(Cl)ccc4c3)C2=O)cc1 [Example 2, 6-Chloro-N-{(3S)-1-[4-(dimethylamino)phenyl]-2-oxopyrrolidin-3-yl}naphthalene-2-sulfonamide]
Ki [1]: < 20 nM

CNS(=O)(=O)c1ccccc1-c1ccc(N2CC[C@H](NS(=O)(=O)/C=C/c3ccc(Cl)s3)C2=O)c(F)c1 [Example 19, 4′-[(3S)-3-({[(E)-2-(5-Chlorothien-2-yl)ethenyl]sulfonyl}amino)-2-oxopyrrolidin-1-yl]-3′-fluoro-N-methyl-1,1′-biphenyl-2-sulfonamide]
Ki [1]: < 10 nM

CS(=O)(=O)Nc1ccccc1-c1ccc(N2CC[C@H](NS(=O)(=O)/C=C/c3ccc(Cl)s3)C2=O)nc1 [Example 21, (E)-2-(5-Chlorothien-2-yl)-N-[(3S)-1-(5-{2-[(methylsulfonyl)amino]phenyl}pyridin-2-yl)-2-oxopyrrolidin-3-yl]ethenesulfonamide]
Ki [1]: < 20 nM

CS(=O)(=O)c1ccccc1-c1ccc(N2CC[C@H](NS(=O)(=O)c3cc4cc(Cl)ccc4o3)C2=O)nc1 [Example 23, 5-Chloro-N-((3S)-1-{5-[2-(methylsulfonyl)phenyl]pyridin-2-yl}-2-oxopyrrolidin-3-yl)-1-benzofuran-2-sulfonamide]
Ki [1]: < 1000 nM

Cc1ccc(-c2ccc(N3CC[C@H](NS(=O)(=O)c4ccc5cc(Cl)ccc5c4)C3=O)c(F)c2)o1 [Example 73, 6-Chloro-N-{(3S)-1-[2-fluoro-4-(5-methyl-2-furyl)phenyl]-2-oxopyrrolidin-3-yl}naphthalene-2-sulfonamide]
Ki [1]: < 1000 nM

O=C1[C@@H](NS(=O)(=O)c2ccc3cc(Cl)ccc3c2)CCN1c1ccc(-c2ccncc2Cl)cc1F [Example 83, 6-chloro-N-{(3S)-1-[4-(3-Chloropyridin-4-yl)-2-fluorophenyl]-2-oxopyrrolidin-3-yl}naphthalene-2-sulfonamide]
Ki [1]: < 10 nM

Cn1cncc1-c1ccc(N2CC[C@H](NS(=O)(=O)c3ccc4cc(Cl)ccc4c3)C2=O)c(F)c1 [Example 85, 6-Chloro-N-{(3S)-1-[2-fluoro-4-(1-methyl-1H-imidazol-5-yl)phenyl]-2-oxopyrrolidin-3-yl}naphthalene-2-sulfonamide]
Ki [1]: < 10 nM

O=C1[C@@H](NS(=O)(=O)c2ccc3cc(Cl)ccc3c2)CCN1c1ccc(I)cc1F [Example 89, 6-Chloro-N-[(3S)-1-(2-fluoro-4-iodophenyl)-2-oxopyrrolidin-3-yl]naphthalene-2-sulfonamide]
Ki [1]: < 200 nM

O=C1[C@@H](NS(=O)(=O)/C=C/c2ccc(Cl)s2)CCN1c1ccc(I)cn1 [Example 90, (E)-2-(5-Chlorothien-2-yl)-N-[(3S)-1-(5-iodopyridin-2yl)oxopyrrolidin-3-yl]ethenesulfonamide]
Ki [1]: < 1000 nM

CC(C)(C)c1ccc(N2CC[C@H](NS(=O)(=O)c3ccc4cc(Cl)ccc4c3)C2=O)cc1 [Example 125, N-[(3S)-1-(4-tert-butylphenyl)-2-oxopyrrolidinyl]-6-chloro-2-naphthalenesulfonamide]
Ki [1]: < 200 nM

NC(=O)CN([C@H]1CCN(c2ccc(-c3ccccc3S(N)(=O)=O)cc2F)C1=O)S(=O)(=O)c1cc2ccc(Cl)cc2s1 [Example 140, 2-{(6-Chloro-benzo[b]thiophene-2-sulphonyl)-[(S)-1-(3-fluoro-2′-sulfamoyl-biphenyl-4-yl)-2-oxo-pyrrolidin-3-yl]-amino}-acetamide Formate]
Ki [2]: < 10 nM

C/C(=C\S(=O)(=O)N[C@H]1CCN(c2ccc(-n3ccnc3C[N+](C)(C)CC(N)=O)cc2F)C1=O)c1ccc(Cl)s1 [Example 142, 2-Amino-N-[(1-{4-[(3S)-3-({[(1E)-2-(5-chlorothien-2-yl)prop-1-enyl]sulfonyl}amino)-2-oxopyrrolidin-1-yl]-3-fluorophenyl}-1H-imidazol-2-yl)methyl]-N,N-dimethyl-2-oxoethanaminium formate]
Ki [2]: < 10 nM

C[N+](C)(CC(N)=O)Cc1nccn1-c1ccc(N2CC[C@H](NS(=O)(=O)CCc3ccc(Cl)s3)C2=O)c(F)c1 [Example 143, 2-Amino-N-[(1-{4-[(3S)-3-({[2-(5-chlorothien-2-yl)ethyl]sulfonyl}amino)-2-oxopyrrolidin-1-yl]-3-fluorophenyl}-1H-imidazol-2-yl)methyl]-N,N-dimethyl-2-oxoethanaminium Formate]
Ki [2]: < 10 nM

C[N+](C)(CC(N)=O)Cc1nccn1-c1ccc(N2CC[C@H](NS(=O)(=O)c3cc4ccc(Cl)cc4s3)C2=O)c(F)c1 [Example 144, 2-Amino-N-({1-[4-((3S)-3-{[(6-chloro-1-benzothien-2-yl)sulfonyl]amino}-2-oxopyrrolidin-1-yl)-3-fluorophenyl]-1 H-imidazol-2-yl}methyl)-N,N-dimethyl-2-oxoethanaminium Formate]
Ki [2]: < 10 nM
